Test results as given in PubChem BioAssay AID1259407 (Chemical Carcinogenesis Research Information System (CCRIS), 2018).
Calls of active or inactive are those of the source. No rule for the calls is given here.

Tested on: CCRIS mutagenicity, Ames/micronucleus/aberration tests
Test: CCRIS mutagenicity studies
[1] = Test System: AMES SALMONELLA TYPHIMURIUM, Strain/Indicator: TA98, Metabolic Activation: NONE, Method: PREINCUBATION
[2] = Test System: AMES SALMONELLA TYPHIMURIUM, Strain/Indicator: TA100, Metabolic Activation: NONE, Method: PREINCUBATION
[3] = Test System: AMES SALMONELLA TYPHIMURIUM, Strain/Indicator: TA98, Metabolic Activation: NONE, Method: STANDARD PLATE
[4] = Test System: AMES SALMONELLA TYPHIMURIUM, Strain/Indicator: TA100, Metabolic Activation: NONE, Method: STANDARD PLATE
[5] = Test System: AMES SALMONELLA TYPHIMURIUM, Strain/Indicator: TA100, Metabolic Activation: RAT, LIVER, S-9, AROCLOR 1254, Method: STANDARD PLATE
[6] = Test System: AMES SALMONELLA TYPHIMURIUM, Strain/Indicator: TA100, Metabolic Activation: RAT, LIVER, S-9, PCB, Method: PREINCUBATION

With `C=C(C)[C@H]1CC=C(C)C(=O)C1` the mutagenic call (Test System: AMES SALMONELLA TYPHIMURIUM, Strain/Indicator: TA98, Metabolic Activation: HAMSTER, LIVER, S-9, AROCLOR 1254, Method: PREINCUBATION) was “inactive; negative”, the mutagenic call [1] was “inactive; negative” and the mutagenic call (Test System: AMES SALMONELLA TYPHIMURIUM, Strain/Indicator: TA98, Metabolic Activation: RAT, LIVER, S-9, AROCLOR 1254, Method: PREINCUBATION) was “inactive; negative”. The mutagenic call (Test System: AMES SALMONELLA TYPHIMURIUM, Strain/Indicator: TA100, Metabolic Activation: HAMSTER, LIVER, S-9, AROCLOR 1254, Method: PREINCUBATION) was “inactive; negative”, the mutagenic call [2] was “inactive; negative” and the mutagenic call (Test System: AMES SALMONELLA TYPHIMURIUM, Strain/Indicator: TA100, Metabolic Activation: RAT, LIVER, S-9, AROCLOR 1254, Method: PREINCUBATION) was “inactive; negative”. The mutagenic call (Test System: AMES SALMONELLA TYPHIMURIUM, Strain/Indicator: TA1535, Metabolic Activation: HAMSTER, LIVER, S-9, AROCLOR 1254, Method: PREINCUBATION) was “inactive; negative”, the mutagenic call (Test System: AMES SALMONELLA TYPHIMURIUM, Strain/Indicator: TA1535, Metabolic Activation: NONE, Method: PREINCUBATION) was “inactive; negative” and the mutagenic call (Test System: AMES SALMONELLA TYPHIMURIUM, Strain/Indicator: TA1535, Metabolic Activation: RAT, LIVER, S-9, AROCLOR 1254, Method: PREINCUBATION) was “inactive; negative”. The mutagenic call (Test System: AMES SALMONELLA TYPHIMURIUM, Strain/Indicator: TA1537, Metabolic Activation: HAMSTER, LIVER, S-9, AROCLOR 1254, Method: PREINCUBATION) was “inactive; negative”, the mutagenic call (Test System: AMES SALMONELLA TYPHIMURIUM, Strain/Indicator: TA1537, Metabolic Activation: NONE, Method: PREINCUBATION) was “inactive; negative” and the mutagenic call (Test System: AMES SALMONELLA TYPHIMURIUM, Strain/Indicator: TA1537, Metabolic Activation: RAT, LIVER, S-9, AROCLOR 1254, Method: PREINCUBATION) was “inactive; negative”.

With `Cn1c2ccccc2c2cc([N+](=O)[O-])ccc21` the mutagenic call [3] was “active; positive”, the mutagenic call (Test System: AMES SALMONELLA TYPHIMURIUM, Strain/Indicator: TA98, Metabolic Activation: RAT LIVER S-9, AROCLOR 1254, Method: STANDARD PLATE) was “active; positive” and the mutagenic call [4] was “active; positive”. For the same compound, the mutagenic call (Test System: AMES SALMONELLA TYPHIMURIUM, Strain/Indicator: TA100, Metabolic Activation: RAT LIVER S-9, AROCLOR 1254, Method: STANDARD PLATE) was “active; positive”.

In the case of `COc1ccc2c(c1)C(=O)c1c(OC)c(OC)cc3ccnc-2c13`, the mutagenic call (Test System: AMES SALMONELLA TYPHIMURIUM, Strain/Indicator: TA98, Metabolic Activation: RAT, LIVER, S-9, PHENOBARBITAL AND BETA-NAPHTHOFLAVONE, Method: PREINCUBATION) is reported as “active; positive” and the mutagenic call (Test System: AMES SALMONELLA TYPHIMURIUM, Strain/Indicator: TA100, Metabolic Activation: RAT, LIVER, S-9, PHENOBARBITAL AND BETA-NAPHTHOFLAVONE, Method: PREINCUBATION) is reported as “active; positive”.

`C=CCc1cc(OC)c(OC)c(OC)c1` was tested, and the mutagenic call (Test System: UDS RAT HEPATOCYTES, Strain/Indicator: THY INCORP, Metabolic Activation: NONE, Method: LIQUID SCINTILLATION COUNTING) was “active; positive”.

For `O=C(CBr)c1ccccc1`, the mutagenic call (Test System: AMES SALMONELLA TYPHIMURIUM, Strain/Indicator: TA98, Metabolic Activation: HAMSTER, LIVER, S-9, AROCLOR 1254, Method: STANDARD PLATE) was “inactive; negative”, the mutagenic call [1] was “inactive; negative” and the mutagenic call [3] was “inactive; negative”. For the same compound, the mutagenic call (Test System: AMES SALMONELLA TYPHIMURIUM, Strain/Indicator: TA98, Metabolic Activation: RAT, LIVER, S-9, AROCLOR 1254, Method: STANDARD PLATE) was “inactive; negative”, the mutagenic call (Test System: AMES SALMONELLA TYPHIMURIUM, Strain/Indicator: TA98, Metabolic Activation: RAT, LIVER, S-9, PCB, Method: PREINCUBATION) was “inactive; negative” and the mutagenic call (Test System: AMES SALMONELLA TYPHIMURIUM, Strain/Indicator: TA100, Metabolic Activation: HAMSTER, LIVER, S-9, AROCLOR 1254, Method: STANDARD PLATE) was “inactive; negative”. The mutagenic call [2] was “inactive; negative”, the mutagenic call [4] was “inactive; negative” and the mutagenic call [5] was “inactive; negative”. For the same compound, the mutagenic call [6] was “inactive; negative”, the mutagenic call (Test System: AMES SALMONELLA TYPHIMURIUM, Strain/Indicator: TA1535, Metabolic Activation: HAMSTER, LIVER, S-9, AROCLOR 1254, Method: STANDARD PLATE) was “inactive; negative” and the mutagenic call (Test System: AMES SALMONELLA TYPHIMURIUM, Strain/Indicator: TA1535, Metabolic Activation: NONE, Method: STANDARD PLATE) was “inactive; negative”. For the same compound, the mutagenic call (Test System: AMES SALMONELLA TYPHIMURIUM, Strain/Indicator: TA1535, Metabolic Activation: RAT, LIVER, S-9, AROCLOR 1254, Method: STANDARD PLATE) was “inactive; negative”, the mutagenic call (Test System: AMES SALMONELLA TYPHIMURIUM, Strain/Indicator: TA1537, Metabolic Activation: HAMSTER, LIVER, S-9, AROCLOR 1254, Method: STANDARD PLATE) was “inactive; negative” and the mutagenic call (Test System: AMES SALMONELLA TYPHIMURIUM, Strain/Indicator: TA1537, Metabolic Activation: NONE, Method: STANDARD PLATE) was “inactive; negative”. The mutagenic call (Test System: AMES SALMONELLA TYPHIMURIUM, Strain/Indicator: TA1537, Metabolic Activation: RAT, LIVER, S-9, AROCLOR 1254, Method: STANDARD PLATE) was “inactive; negative”, the mutagenic call (Test System: AMES SALMONELLA TYPHIMURIUM, Strain/Indicator: TA1538, Metabolic Activation: HAMSTER, LIVER, S-9, AROCLOR 1254, Method: STANDARD PLATE) was “inactive; negative” and the mutagenic call (Test System: AMES SALMONELLA TYPHIMURIUM, Strain/Indicator: TA1538, Metabolic Activation: NONE, Method: STANDARD PLATE) was “inactive; negative”. The mutagenic call (Test System: AMES SALMONELLA TYPHIMURIUM, Strain/Indicator: TA1538, Metabolic Activation: RAT, LIVER, S-9, AROCLOR 1254, Method: STANDARD PLATE) was “inactive; negative”, the mutagenic call (Test System: E. COLI, Strain/Indicator: WP2 UVRA, Metabolic Activation: NONE, Method: PREINCUBATION) was “inactive; negative” and the mutagenic call (Test System: MOUSE LYMPHOMA, Strain/Indicator: L5178Y (TK+/TK-), Metabolic Activation: NONE, Method: SUSPENSION/PLATE) was “inactive; negative. reevaluation of results: negative”. The mutagenic call (Test System: MOUSE LYMPHOMA, Strain/Indicator: L5178Y (TK+/TK-), Metabolic Activation: RAT, LIVER, S-9, AROCLOR 1254, Method: SUSPENSION/PLATE) was “active; positive. reevaluation of results: inconclusive”.

`CC(C)[C@@](O)(C(=O)OC[C@@H]1CCN2CCC[C@H]12)[C@@H](C)O` was tested, and the mutagenic call (Test System: AMES SALMONELLA TYPHIMURIUM, Strain/Indicator: TA100, Metabolic Activation: HAMSTER, LIVER, S-9, PCB, Method: PREINCUBATION) was “inactive; negative” and the mutagenic call [6] was “inactive; negative”.

With `CCN(N)CC` the mutagenic call (Test System: AMES SALMONELLA TYPHIMURIUM, Strain/Indicator: TA100, Metabolic Activation: NONE, Method: PREINCUBATION (11 HR GROWTH PERIOD FOR BACTERIA)) was “inactive; negative”, the mutagenic call [4] was “inactive; negative” and the mutagenic call [5] was “inactive; negative”. For the same compound, the mutagenic call (Test System: AMES SALMONELLA TYPHIMURIUM, Strain/Indicator: TA100, Metabolic Activation: RAT, LIVER, S-9, PCB, Method: PREINCUBATION (11 HR GROWTH PERIOD FOR BACTERIA)) was “inactive; negative”, the mutagenic call (Test System: AMES SALMONELLA TYPHIMURIUM, Strain/Indicator: TA102, Metabolic Activation: NONE, Method: PREINCUBATION (5 HR GROWTH PERIOD FOR BACTERIA)) was “active; positive” and the mutagenic call (Test System: AMES SALMONELLA TYPHIMURIUM, Strain/Indicator: TA102, Metabolic Activation: NONE, Method: PREINCUBATION (7 OR 11 HR GROWTH PERIOD FOR BACTERIA)) was “inactive; negative”. For the same compound, the mutagenic call (Test System: AMES SALMONELLA TYPHIMURIUM, Strain/Indicator: TA102, Metabolic Activation: NONE, Method: STANDARD PLATE) was “inactive; negative”, the mutagenic call (Test System: AMES SALMONELLA TYPHIMURIUM, Strain/Indicator: TA102, Metabolic Activation: RAT, LIVER, S-9, AROCLOR 1254, Method: STANDARD PLATE) was “inactive; negative” and the mutagenic call (Test System: AMES SALMONELLA TYPHIMURIUM, Strain/Indicator: TA102, Metabolic Activation: RAT, LIVER, S-9, PCB, Method: PREINCUBATION (5 OR 7 HR GROWTH PERIOD FOR BACTERIA)) was “inactive; negative”.
